We go through nine molecules from patent US9809623B2, “α4β7 peptide monomer and dimer antagonists” (Protagonist Therapeutics, Inc., priority 2014, dated 2017).

Data set [1] addresses T1, α4β1 (Homo sapiens, UniProt P05556+P13612, DEL729-798).
T1 construct: purchased R&D Systems 5668-A4
As to the kind of experiment: α4β1-VCAM Competition ELISA. The format is binding. Summed up: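 Recombinant α4β1 (60 nM final) competed with serially diluted peptides (top final 100 μM) for VCAM-1 Fc coated at 400 ng/well, in Tris pH 7.6 with 1 mM MnCl2 or MgCl2, for 2 h at 37 °C. Bound integrin was detected with anti-CD49d 9F10 plus HRP anti-mouse IgG, using TMB read at 450 nm.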

In data set [2] the target is α4β7 (Homo sapiens, UniProt P13612+P26010). As to the kind of experiment: α4β7-MAdCAM Cell Adhesion Assay (RPMI 8866 human cells). The format is cell-based. Details: host or cells: RPMI 8866 human B lymphoblastoid cells. Summed up:
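Washed RPMI 8866 cells (200,000/well) in DMEM with 0.1% BSA, 10 mM HEPES pH 7, 1 mM MnCl2 adhered to rh MAdCAM-1/Fc-coated wells with serially diluted peptides, 30-45 min at 37 °C. After three washes, bound cells quantified by MTT, A570, cell-free background subtracted for dose response.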

Data set [3] can be described thus: Simulated Intestinal Fluid (SIF) Stability Assay. The format is in vitro ADME, porcine. The settings on record: pig, simulated intestinal fluid (SIF) with 1% porcine pancreatin. Summed up: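 Peptides (22 μM final) incubated at 37 °C in FASSIF (pH 6.5) with 1% porcine pancreatin; aliquots quenched at various times and analyzed by LC-MS/MS against internal standard. Half-life from first-order exponential decay fit of percent remaining.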

Where [4] appears, read: Table 3-B, Selectivity (α4β1), range classes, read-out: α4β1 ELISA IC50.
Setting [5] is: Table 3-B, Potency (α4β7), range classes, read-out: α4β7 cell (Hu) IC50.
[6] abbreviates: Table 4-B, read-out: ELISA_α4β1 IC50.
Setting [7] is: Table 4-B, read-out: Cell Adhesion α4β7 IC50.
Setting [8] is: pH 6.5, Table 4-C, t1/2, > means assay stopped at that time, read-out: SIF (porcine) Min.

Read-outs that look alike come from different tables or passages of the source. Numbered stars: 1 amine (or outer) side, 2 acyl side, 3 side chain; on linkers, the order of the positions; unused ones are H or OH. Bridge positions count the residues as written; N and C are the ends. Square brackets hold non-standard residues; d marks the D form. Peptide text beside a SMILES is read from it. I, II: the chains in the order shown. ξ: configuration not given here. X2 = O=C(CCOCCOCCOCCOCCOCCOCCOCCOCCOCCOCCOCCOCCOCCOCCOCCOCCOCCOCCOCCOCCOCCOCCOCCOCCOCCC(=O)[*:2])[*:1]; Phe(4-tBu) = CC(C)(C)c1ccc(C[C@H](N)C(=O)O)cc1; 1Nal = N[C@@H](Cc1cccc2ccccc12)C(=O)O; 2Nal = N[C@@H](Cc1ccc2ccccc2c1)C(=O)O; Diglycolyl = O=C(COCC(=O)[*:2])[*:1]; NMeR = CN[C@@H](CCCNC(=N)N)C(=O)O; β3hE = N[C@@H](CCC(=O)O)CC(=O)O; Thr(3ξ) = CC(O)[C@H](N)C(=O)O; NMeK = CN[C@@H](CCCCN)C(=O)O; Pen = CC(C)(S)[C@H](N)C(=O)O; dNMeK = CN[C@H](CCCCN)C(=O)O

α4β7, sequence (P13612 34-1032): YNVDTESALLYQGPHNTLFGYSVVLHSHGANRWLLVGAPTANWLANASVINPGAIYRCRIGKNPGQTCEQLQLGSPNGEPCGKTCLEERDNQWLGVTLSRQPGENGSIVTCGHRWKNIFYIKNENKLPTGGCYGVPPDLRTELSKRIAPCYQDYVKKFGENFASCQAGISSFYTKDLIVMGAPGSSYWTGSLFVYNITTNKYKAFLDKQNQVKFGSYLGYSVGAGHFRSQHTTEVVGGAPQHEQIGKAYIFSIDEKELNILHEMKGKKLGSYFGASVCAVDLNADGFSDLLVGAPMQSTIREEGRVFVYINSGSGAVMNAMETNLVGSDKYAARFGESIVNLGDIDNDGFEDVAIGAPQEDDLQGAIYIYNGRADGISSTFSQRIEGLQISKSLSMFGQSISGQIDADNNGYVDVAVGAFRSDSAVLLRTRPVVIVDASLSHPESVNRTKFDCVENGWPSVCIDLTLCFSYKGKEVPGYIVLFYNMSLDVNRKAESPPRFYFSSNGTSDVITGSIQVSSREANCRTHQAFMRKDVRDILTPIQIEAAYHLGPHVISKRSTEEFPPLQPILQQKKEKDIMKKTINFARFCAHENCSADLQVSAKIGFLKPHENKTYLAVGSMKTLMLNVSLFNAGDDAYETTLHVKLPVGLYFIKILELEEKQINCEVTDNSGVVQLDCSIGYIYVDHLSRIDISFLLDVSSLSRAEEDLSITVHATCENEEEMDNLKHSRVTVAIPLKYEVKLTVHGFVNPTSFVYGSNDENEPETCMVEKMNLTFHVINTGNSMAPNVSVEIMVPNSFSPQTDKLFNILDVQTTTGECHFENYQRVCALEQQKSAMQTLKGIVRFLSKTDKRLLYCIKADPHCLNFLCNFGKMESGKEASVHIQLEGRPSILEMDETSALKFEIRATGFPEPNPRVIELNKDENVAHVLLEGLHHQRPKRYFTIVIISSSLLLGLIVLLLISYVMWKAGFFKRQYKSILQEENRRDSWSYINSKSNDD
α4β7, sequence (P26010 20-798): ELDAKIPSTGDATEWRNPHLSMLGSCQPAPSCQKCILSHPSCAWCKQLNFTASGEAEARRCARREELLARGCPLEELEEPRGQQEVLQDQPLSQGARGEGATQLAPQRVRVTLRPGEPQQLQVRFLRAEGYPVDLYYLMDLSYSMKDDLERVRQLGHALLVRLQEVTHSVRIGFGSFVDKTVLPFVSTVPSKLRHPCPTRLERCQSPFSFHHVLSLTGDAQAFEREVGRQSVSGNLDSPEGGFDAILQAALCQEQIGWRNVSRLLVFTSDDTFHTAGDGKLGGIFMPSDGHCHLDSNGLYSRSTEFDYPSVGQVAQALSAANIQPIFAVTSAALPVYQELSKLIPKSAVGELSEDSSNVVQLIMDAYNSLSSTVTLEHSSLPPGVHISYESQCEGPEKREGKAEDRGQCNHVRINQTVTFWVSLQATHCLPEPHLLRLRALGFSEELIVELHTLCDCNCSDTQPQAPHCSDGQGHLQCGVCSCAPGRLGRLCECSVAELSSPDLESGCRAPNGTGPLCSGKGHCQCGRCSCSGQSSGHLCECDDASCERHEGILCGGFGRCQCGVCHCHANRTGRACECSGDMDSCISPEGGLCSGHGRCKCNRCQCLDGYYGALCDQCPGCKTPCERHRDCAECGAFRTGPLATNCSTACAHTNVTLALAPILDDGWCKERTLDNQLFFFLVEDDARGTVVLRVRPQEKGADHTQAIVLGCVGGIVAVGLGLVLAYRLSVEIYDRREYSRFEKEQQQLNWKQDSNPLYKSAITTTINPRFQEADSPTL
T1 sequence (P13612 34-977 limits assumed, stated change not applied): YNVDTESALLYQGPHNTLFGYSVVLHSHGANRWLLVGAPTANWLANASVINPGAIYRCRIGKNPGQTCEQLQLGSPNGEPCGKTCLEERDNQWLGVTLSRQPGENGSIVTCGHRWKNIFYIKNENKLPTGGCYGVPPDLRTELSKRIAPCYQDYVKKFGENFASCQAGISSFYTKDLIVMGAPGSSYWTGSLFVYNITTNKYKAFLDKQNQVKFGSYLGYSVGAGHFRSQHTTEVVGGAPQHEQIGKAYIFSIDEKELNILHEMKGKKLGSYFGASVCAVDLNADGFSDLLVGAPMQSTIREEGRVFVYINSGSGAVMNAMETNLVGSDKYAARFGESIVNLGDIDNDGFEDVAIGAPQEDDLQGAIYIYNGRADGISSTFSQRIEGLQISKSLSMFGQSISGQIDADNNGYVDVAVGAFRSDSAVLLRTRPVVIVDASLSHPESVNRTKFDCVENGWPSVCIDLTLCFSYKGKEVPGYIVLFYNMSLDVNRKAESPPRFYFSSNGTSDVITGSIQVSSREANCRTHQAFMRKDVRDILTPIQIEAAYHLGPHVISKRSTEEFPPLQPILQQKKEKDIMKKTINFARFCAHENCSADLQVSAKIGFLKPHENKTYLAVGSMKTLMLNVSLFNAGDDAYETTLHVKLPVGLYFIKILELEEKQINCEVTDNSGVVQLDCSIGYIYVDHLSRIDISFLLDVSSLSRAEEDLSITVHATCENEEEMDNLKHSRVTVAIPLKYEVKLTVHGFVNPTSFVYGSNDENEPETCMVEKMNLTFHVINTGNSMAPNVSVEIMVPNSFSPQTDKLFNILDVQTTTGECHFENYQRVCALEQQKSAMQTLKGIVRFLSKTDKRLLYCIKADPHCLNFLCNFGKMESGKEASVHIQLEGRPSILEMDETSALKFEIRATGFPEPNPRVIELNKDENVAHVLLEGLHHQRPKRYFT
T1 sequence (P05556 21-728 limits assumed, stated change not applied): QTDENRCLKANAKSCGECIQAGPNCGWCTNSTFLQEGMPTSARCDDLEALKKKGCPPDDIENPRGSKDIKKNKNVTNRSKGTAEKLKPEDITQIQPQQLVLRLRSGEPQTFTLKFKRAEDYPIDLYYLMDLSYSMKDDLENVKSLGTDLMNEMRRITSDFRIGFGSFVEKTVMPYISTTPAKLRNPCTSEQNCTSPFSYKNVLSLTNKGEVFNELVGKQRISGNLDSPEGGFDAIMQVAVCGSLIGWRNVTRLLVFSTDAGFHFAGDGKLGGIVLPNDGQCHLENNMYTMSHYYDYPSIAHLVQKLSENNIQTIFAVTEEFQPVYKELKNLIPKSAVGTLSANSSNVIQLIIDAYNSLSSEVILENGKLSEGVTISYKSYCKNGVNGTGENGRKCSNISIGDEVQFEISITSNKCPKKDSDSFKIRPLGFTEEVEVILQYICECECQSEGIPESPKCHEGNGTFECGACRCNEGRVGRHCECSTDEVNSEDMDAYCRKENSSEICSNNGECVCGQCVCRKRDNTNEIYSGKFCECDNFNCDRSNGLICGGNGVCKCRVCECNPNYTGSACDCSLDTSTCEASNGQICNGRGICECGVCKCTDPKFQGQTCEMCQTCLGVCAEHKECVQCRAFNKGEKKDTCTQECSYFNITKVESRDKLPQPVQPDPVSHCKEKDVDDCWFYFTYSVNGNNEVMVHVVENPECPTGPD

Regarding `CC(=O)N[C@@H]1C(=O)N(C)[C@@H](CCCNC(=N)N)C(=O)N[C@@H](CO)C(=O)N[C@@H](CC(=O)O)C(=O)N[C@@H](C(C)O)C(=O)N[C@@H](CC(C)C)C(=O)N[C@H](C(=O)N[C@@H](Cc2ccc(C(C)(C)C)cc2)C(=O)N[C@@H](CCC(=O)O)CC(=O)N[C@H](CCCCNC(=O)COCC(=O)NCCCC[C@@H](NC(=O)C[C@H](CCC(=O)O)NC(=O)[C@H](Cc2ccc(C(C)(C)C)cc2)NC(=O)[C@H]2NC(=O)[C@H](CC(C)C)NC(=O)[C@H](C(C)O)NC(=O)[C@H](CC(=O)O)NC(=O)[C@H](CO)NC(=O)[C@H](CCCNC(=N)N)N(C)C(=O)[C@@H](NC(C)=O)C(C)(C)SSC2(C)C)C(N)=O)C(N)=O)C(C)(C)SSC1(C)C` (stereo partly drawn) [Peptide X, [Ac-Pen-(N-Me-Arg)-Ser-Asp-Thr-Leu-Pen-(Phe(4-tBu))-(β-homoGlu)-(D-Lys)]2-DIG] (I: Ac-[Pen][NMeR]SD[Thr(3ξ)]L[Pen][Phe(4-tBu)][β3hE][dK]-NH2 / II: Ac-[Pen][NMeR]SD[Thr(3ξ)]L[Pen][Phe(4-tBu)][β3hE][dK]-NH2; disulfide I:1-I:7, II:1-II:7; linker I:10-II:10 via Diglycolyl), the IC50 (usually the point on the concentration scale where inhibition reaches its midpoint) in data set [1] (1 mM Mg^2+ binding conditions, read-out: IC50 for α4β1, competition ELISA) is greater than 10000 nM; in data set [1] (b977, second statement, conditions not stated, read-out: IC50 for α4β1), greater than 100000 nM; in data set [2] (human B cell lymphoblastoid RPMI8866, read-out: IC50 for blocking adhesion of RPMI8866 cell line to MAdCAM-1), 0.72 nM.

Turning to `CC(=O)N[C@@H]1C(=O)N(C)[C@@H](CCCNC(=N)N)C(=O)N[C@@H](CO)C(=O)N[C@@H](CC(=O)O)C(=O)N[C@@H]([C@@H](C)O)C(=O)N[C@@H](CC(C)C)C(=O)N[C@H](C(=O)N[C@@H](Cc2cccc3ccccc23)C(=O)N[C@@H](CCC(=O)O)C(=O)N(C)[C@H](CCCCNC(=O)COCC(=O)NCCCC[C@H](C(N)=O)N(C)C(=O)[C@H](CCC(=O)O)NC(=O)[C@H](Cc2cccc3ccccc23)NC(=O)[C@H]2NC(=O)[C@H](CC(C)C)NC(=O)[C@H]([C@@H](C)O)NC(=O)[C@H](CC(=O)O)NC(=O)[C@H](CO)NC(=O)[C@H](CCCNC(=N)N)N(C)C(=O)[C@@H](NC(C)=O)C(C)(C)SSC2(C)C)C(N)=O)C(C)(C)SSC1(C)C` [compound 44] (I: Ac-[Pen][NMeR]SDTL[Pen][1Nal]E[dNMeK]-NH2 / II: Ac-[Pen][NMeR]SDTL[Pen][1Nal]E[dNMeK]-NH2; disulfide I:1-I:7, II:1-II:7; linker I:10-II:10 via Diglycolyl), the IC50 in data set [1] (setting [4]) was 100 to 500 nM; in data set [2] (setting [5]), less than 10 nM. In data set [3] (pH 6.5, Table 3-B, > means experiment was stopped at that time and half life was not reached, read-out: Stabilty SIF t1/2), the half-life at 22 μM was greater than 3 h.

On to `CC(=O)N[C@@H]1C(=O)N(C)[C@@H](CCCNC(=N)N)C(=O)N[C@@H](CO)C(=O)N[C@@H](CC(=O)O)C(=O)N[C@@H]([C@@H](C)O)C(=O)N[C@@H](CC(C)C)C(=O)N[C@H](C(=O)N[C@@H](Cc2c[nH]c3ccccc23)C(=O)N[C@@H](CCC(=O)O)C(=O)N[C@H](CCCCNC(=O)COCC(=O)NCCCC[C@@H](NC(=O)[C@H](CCC(=O)O)NC(=O)[C@H](Cc2c[nH]c3ccccc23)NC(=O)[C@H]2NC(=O)[C@H](CC(C)C)NC(=O)[C@H]([C@@H](C)O)NC(=O)[C@H](CC(=O)O)NC(=O)[C@H](CO)NC(=O)[C@H](CCCNC(=N)N)N(C)C(=O)[C@@H](NC(C)=O)C(C)(C)SSC2(C)C)C(=O)O)C(=O)O)C(C)(C)SSC1(C)C` [compound 78] (I: Ac-[Pen][NMeR]SDTL[Pen]WE[dK]-OH / II: Ac-[Pen][NMeR]SDTL[Pen]WE[dK]-OH; disulfide I:1-I:7, II:1-II:7; linker I:10-II:10 via Diglycolyl), for which the figures for the IC50 in data set [1] (setting [4]) and in data set [2] (setting [5]) were 100 to 500 nM and less than 10 nM, respectively.

As for `CC(=O)N[C@@H]1C(=O)N(C)[C@@H](CCCNC(=N)N)C(=O)N[C@@H](CO)C(=O)N[C@@H](CC(=O)O)C(=O)N[C@@H]([C@@H](C)O)C(=O)N[C@@H](CC(C)C)C(=O)N[C@H](C(=O)N[C@@H](Cc2cccc3ccccc23)C(=O)N[C@@H](CCC(=O)O)CC(=O)N(C)[C@@H](CCCCNC(=O)COCC(=O)NCCCC[C@@H](C(N)=O)N(C)C(=O)C[C@H](CCC(=O)O)NC(=O)[C@H](Cc2cccc3ccccc23)NC(=O)[C@H]2NC(=O)[C@H](CC(C)C)NC(=O)[C@H]([C@@H](C)O)NC(=O)[C@H](CC(=O)O)NC(=O)[C@H](CO)NC(=O)[C@H](CCCNC(=N)N)N(C)C(=O)[C@@H](NC(C)=O)C(C)(C)SSC2(C)C)C(N)=O)C(C)(C)SSC1(C)C` [compound 142] (I: Ac-[Pen][NMeR]SDTL[Pen][1Nal][β3hE][NMeK]-NH2 / II: Ac-[Pen][NMeR]SDTL[Pen][1Nal][β3hE][NMeK]-NH2; disulfide I:1-I:7, II:1-II:7; linker I:10-II:10 via Diglycolyl), the values for the IC50 in data set [1] (setting [4]) and in data set [2] (setting [5]) were 500 to 1000 nM and less than 10 nM, respectively.

As to `CC(=O)N[C@H]1CSSC[C@@H](C(=O)NCC(=O)N[C@@H](CCC(=O)O)C(=O)N[C@@H](CCCCNC(=O)CCOCCOCCOCCOCCOCCOCCOCCOCCOCCOCCOCCOCCOCCOCCOCCOCCOCCOCCOCCOCCOCCOCCOCCOCCOCCC(=O)NCCCC[C@H](NC(=O)[C@H](CCC(=O)O)NC(=O)CNC(=O)[C@@H]2CSSC[C@H](NC(C)=O)C(=O)N[C@@H](CCCNC(=N)N)C(=O)N[C@@H](CO)C(=O)N[C@@H](CC(=O)O)C(=O)N[C@@H]([C@@H](C)O)C(=O)N[C@@H](CC(C)C)C(=O)N2)C(N)=O)C(N)=O)NC(=O)[C@H](CC(C)C)NC(=O)[C@H]([C@@H](C)O)NC(=O)[C@H](CC(=O)O)NC(=O)[C@H](CO)NC(=O)[C@H](CCCNC(=N)N)NC1=O` [compound 197, (Ac-C-R-S-D-T-L-C-G-E-K-NH2)2-PEG25] (I: Ac-CRSDTLCGEK-NH2 / II: Ac-CRSDTLCGEK-NH2; disulfide I:1-I:7, II:1-II:7; linker I:10-II:10 via X2), the IC50 in data set [1] (setting [6]) is 964 nM; in data set [2] (setting [7]), 301 nM.

On to `CC(=O)N[C@H]1CSSC[C@@H](C(=O)NCC(=O)N[C@@H](CCC(=O)O)C(N)=O)NC(=O)[C@H](CC(C)C)NC(=O)[C@H]([C@@H](C)O)NC(=O)[C@H](CC(=O)O)NC(=O)[C@H](CO)NC(=O)[C@H](CCCNC(=N)N)N(C)C1=O` [compound 198, Ac-C-N-Me-R-S-D-T-L-C-G-E-NH2] (Ac-C[NMeR]SDTLCGE-NH2; disulfide 1-7), for which the IC50 was determined as 1290 nM in data set [1] (setting [6]) and 1120 nM in data set [2] (setting [7]).

Regarding `CC(=O)N[C@@H]1C(=O)N[C@@H](CCCNC(=N)N)C(=O)N[C@@H](CO)C(=O)N[C@@H](CC(=O)O)C(=O)N[C@@H]([C@@H](C)O)C(=O)N[C@@H](CC(C)C)C(=O)N[C@H](C(=O)N[C@H](CCCCNC(=O)COCC(=O)NCCCC[C@@H](NC(=O)[C@@H]2CSSC(C)(C)[C@H](NC(C)=O)C(=O)N[C@@H](CCCNC(=N)N)C(=O)N[C@@H](CO)C(=O)N[C@@H](CC(=O)O)C(=O)N[C@@H]([C@@H](C)O)C(=O)N[C@@H](CC(C)C)C(=O)N2)C(N)=O)C(N)=O)CSSC1(C)C` [compound 207, (Ac-Pen-R-S-D-T-L-C-k-NH2)2-DIG] (I: Ac-[Pen]RSDTLC[dK]-NH2 / II: Ac-[Pen]RSDTLC[dK]-NH2; disulfide I:1-I:7, II:1-II:7 (inferred); linker I:8-II:8 via Diglycolyl (inferred)), the half-life at 22 μM in data set [3] (setting [8]) is less than 0.333 h. Also, the IC50 in data set [2] (setting [7]) stood at 49 nM.

Consider `CC(=O)N[C@@H]1C(=O)N(C)[C@@H](CCCNC(=N)N)C(=O)N[C@@H](CO)C(=O)N[C@@H](CC(=O)O)C(=O)N[C@@H]([C@@H](C)O)C(=O)N[C@@H](CC(C)C)C(=O)N[C@H](C(=O)N[C@@H](Cc2c[nH]c3ccccc23)C(=O)N[C@H](CCCCN)C(N)=O)C(C)(C)SSC1(C)C` [compound 208, Ac-Pen-N-Me-R-S-D-T-L-Pen-W-k-NH2] (Ac-[Pen][NMeR]SDTL[Pen]W[dK]-NH2; disulfide 1-7), for which, in data set [3] (setting [8]), the half-life at 22 μM was greater than 6 h. For the same molecule, the IC50 in data set [2] (setting [7]) worked out at 412 nM.

With `CC(=O)N[C@@H]1C(=O)N(C)[C@@H](CCCNC(=N)N)C(=O)N[C@@H](CO)C(=O)N[C@@H](CC(=O)O)C(=O)N[C@@H]([C@@H](C)O)C(=O)N[C@@H](CC(C)C)C(=O)N[C@H](C(=O)N[C@@H](Cc2ccc3ccccc3c2)C(=O)N[C@@H](CCC(=O)O)C(=O)N[C@H](CCCCN)C(N)=O)C(C)(C)SSC1(C)C` [compound 210, Ac-Pen-N-Me-R-S-D-T-L-Pen-2-Nal-E-k-NH2] (Ac-[Pen][NMeR]SDTL[Pen][2Nal]E[dK]-NH2; disulfide 1-7), the IC50 in data set [1] (setting [6]) was determined as 200 nM. Further, the half-life at 22 μM in data set [3] (setting [8]) was greater than 5 h.
